Reference: article PMC8511295 (European journal of medicinal chemistry, 2021)
Read-outs that look alike come from different tables or passages of the source.

Experiments:
[1] = system: HIV-1 NL4–3-HXB2-Luc pseudotyped virus expressing Env of the lab-adapted HIV-1HXB-2 (CXCR4); assay type: cell-based; details: TZM-bl cells
[2] = system: HIV-1WEAUd15.410.5017 (NIH # 11578), dual-tropic (CCR5/CXCR4) clinical isolate of subtype B; assay type: cell-based
[3] = system: control pseudovirus MLV-GP/VSV-G/Luc; assay: microbe, parasite or virus in culture; assay type: cell-based
[4] = system: recombinant CD4-dependent HIV-1ADA virus in CD4-negative Cf2Th-CCR5 cells; assay type: cell-based; details: escalating concentrations
[5] = target: HIV-1 Reverse Transcriptase (RT) (Human immunodeficiency virus type 1 group M subtype B, UniProt P04585); assay: Colorimetric Reverse Transcriptase Assay; assay type: biochemical
[6] = in vitro; details: human

SMILES	antiviral activity against HIV-1HXB-2, in words [1]	also measured
NC[C@H](NC(=O)c1ccc(C2CCCCC2)[nH]1)c1ncc(CO)s1 [6(fS), N-(2-amino-1-(5-(hydroxymethyl)thiazol-2-yl)ethyl)-5-cyclohexyl-1H-pyrrole-2-carboxamide]	poorly actives	–
NC[C@@H](NC(=O)c1ccc(NCC2CCCCC2)cc1)c1ncc(CO)s1 [8(fR), N-(2-amino-1-(5-(hydroxymethyl)thiazol-2-yl)ethyl)-4-((cyclohexylmethyl)amino)benzamide]	poorly active	–
Cc1nc(C(CN)NC(=O)NC(=O)c2ccc(Cl)cc2)sc1CO (stereo not shown) [compound 5, N-((2-amino-1-(5-(hydroxymethyl)-4-methylthiazol-2-yl)ethyl)carbamoyl)-4-chlorobenzamide]	failed to show any significant antiviral activity	–
NCC(NC(=O)c1ccc(-c2ccc(Cl)cc2)[nH]1)c1nccs1 [13(fR), N-(2-amino-1-(thiazol-2-yl)ethyl)-5-(4-chlorophenyl)-1H-pyrrole-2-carboxamide]	–	antiviral activity against the clinical isolate HIV-1WEAUd15.410.5017, in words [2]: best antiviral activity; activity against control pseudovirus VSV-G, in words [3]: poorly active against VSV-G
Cl.NCCNC(=O)c1ccc(-c2ccc(Cl)c(F)c2)[nH]1 [compound 14, N-(2-aminoethyl)-5-(4-chloro-3-fluorophenyl)-1H-pyrrole-2-carboxamide hydrochloride]	low μM range	–
Cc1nc(C(CN)NC(=O)c2cc3cc(Cl)ccc3[nH]2)sc1CO (stereo not shown) [compound 11, N-(2-amino-1-(5-(hydroxymethyl)-4-methylthiazol-2-yl)ethyl)-5-chloro-1H-indole-2-carboxamide]	virtually inactive	–
NC[C@@H](NC(=O)c1ccc(OCC2CCCCC2)cc1)c1ncc(CO)s1 [7(fR), N-(2-amino-1-(5-(hydroxymethyl)thiazol-2-yl)ethyl)-4-(cyclohexylmethoxy)benzamide]	poorly active	–
NC[C@H](NC(=O)c1ccc(NCC2CCCCC2)cc1)c1ncc(CO)s1 [8(fS), N-(2-amino-1-(5-(hydroxymethyl)thiazol-2-yl)ethyl)-4-((cyclohexylmethyl)amino)benzamide]	poorly active	–
NCC(NC(=O)C(=O)NCc1ccc(Cl)c(F)c1)c1ncc(CO)s1 (stereo not shown) [compound 3, N’-[2-amino-1-[5-(hydroxymethyl)thiazol-2-yl]ethyl]-N-[(4-chloro-3-fluorophenyl)methyl]oxamide]	failed to show any significant antiviral activity	–
Cc1cc(-c2ccc(C(F)(F)F)cn2)[nH]c1C(=O)NC(CN)c1ncc(CO)s1 (stereo not shown) [NBD-14270]	–	relative virus infectivity (enhancement of infection), in words [4]: did not enhance HIV-1 infectivity
Cl.Cl.NC[C@@H](NC(=O)CNCc1ccc(Cl)cc1)c1ncc(CO)s1 [4(fR), N-(2-amino-1-(5-(hydroxymethyl)thiazol-2-yl)ethyl)-2-((4-chlorobenzyl)amino)acetamide dihydrochloride]	None of these derivatives showed any appreciable antiviral activity	–
NCC(NC(=O)c1cc2ccc(Cl)cc2[nH]1)c1nc(CO)cs1 (stereo not shown) [compound 12, N-(2-amino-1-(4-(hydroxymethyl)thiazol-2-yl)ethyl)-6-chloro-1H-indole-2-carboxamide]	moderate activity	–
Cc1nc(C(CN)NC(=O)c2cc3ccccc3[nH]2)sc1CO (stereo not shown) [compound 10, N-(2-amino-1-(5-(hydroxymethyl)-4-methylthiazol-2-yl)ethyl)-1H-indole-2-carboxamide]	virtually inactive	–
O=C(N[C@@H](CC1CCNCC1)c1nc(CO)cs1)c1ccc(-c2ccc(C(F)(F)F)cc2)[nH]1 [18(fS), N-(1-(4-(hydroxymethyl)thiazol-2-yl)-2-(piperidin-4-yl)ethyl)-5-(4-(trifluoromethyl)phenyl)-1H-pyrrole-2-carboxamide]	low antiviral activity	–
NCC(NC(=O)c1ccc(-c2ccc(Cl)cc2)[nH]1)c1nccs1 [13(fS), N-(2-amino-1-(thiazol-2-yl)ethyl)-5-(4-chlorophenyl)-1H-pyrrole-2-carboxamide]	–	antiviral activity against the clinical isolate HIV-1WEAUd15.410.5017, in words [2]: best antiviral activity; activity against control pseudovirus VSV-G, in words [3]: poorly active against VSV-G
O=C(N[C@H](CC1CCNCC1)c1nc(CO)cs1)c1ccc(-c2ccc(C(F)(F)F)cc2)[nH]1 [18(fR), N-(1-(4-(hydroxymethyl)thiazol-2-yl)-2-(piperidin-4-yl)ethyl)-5-(4-(trifluoromethyl)phenyl)-1H-pyrrole-2-carboxamide]	low antiviral activity	–
NC[C@@H](NC(=O)c1ccc(C2CCCCC2)[nH]1)c1ncc(CO)s1 [6(fR), N-(2-amino-1-(5-(hydroxymethyl)thiazol-2-yl)ethyl)-5-cyclohexyl-1H-pyrrole-2-carboxamide]	poorly actives	–
CC1(C)CC(NC(=O)C(=O)Nc2ccc(Cl)cc2)CC(C)(C)N1 [NBD-556, reference compound]	–	relative virus infectivity (enhancement of infection), in words [4]: enhanced the infection of the Cf2Th-CCR5 cells in a dose-dependent manner; activity against HIV-1 RT, in words [5]: no activity
NCC(NC(=O)c1cc2ccc(Cl)cc2[nH]1)c1nc(CO)cs1 [12(fS), N-(2-amino-1-(4-(hydroxymethyl)thiazol-2-yl)ethyl)-6-chloro-1H-indole-2-carboxamide]	–	antiviral activity against the clinical isolate HIV-1WEAUd15.410.5017, in words [2]: best antiviral activity; activity against control pseudovirus VSV-G, in words [3]: poorly active against VSV-G; IC50 ([3]; read-out: IC50 against VSV-G): 20.5 ± 0.5 µM
NC[C@H](NC(=O)Cc1ccc(OCC2CCCCC2)cc1)c1ncc(CO)s1 [9(fS), N-(2-amino-1-(5-(hydroxymethyl)thiazol-2-yl)ethyl)-2-(4-(cyclohexylmethoxy)phenyl)acetamide]	no significant antiviral activity	–
NC[C@@H](NC(=O)Cc1ccc(OCC2CCCCC2)cc1)c1ncc(CO)s1 [9(fR), N-(2-amino-1-(5-(hydroxymethyl)thiazol-2-yl)ethyl)-2-(4-(cyclohexylmethoxy)phenyl)acetamide]	no significant antiviral activity	–
NC[C@H](NC(=O)c1ccc(OCC2CCCCC2)cc1)c1ncc(CO)s1 [7(fS), N-(2-amino-1-(5-(hydroxymethyl)thiazol-2-yl)ethyl)-4-(cyclohexylmethoxy)benzamide]	poorly active	–
NCC(NC(=O)c1cc2ccc(Cl)cc2[nH]1)c1nc(CO)cs1 [12(fR), N-(2-amino-1-(4-(hydroxymethyl)thiazol-2-yl)ethyl)-6-chloro-1H-indole-2-carboxamide]	–	activity against HIV-1 RT, in words [5]: no activity; antiviral activity against the clinical isolate HIV-1WEAUd15.410.5017, in words [2]: best antiviral activity; CC50 [6]: 83 to 84 µM; activity against control pseudovirus VSV-G, in words [3]: poorly active against VSV-G; IC50 ([3]; Pseudovirus, U87/CD4/CCR5, read-out: IC50 against VSV-G): 15.7 ± 1 µM
Cl.Cl.NC[C@H](NC(=O)CNCc1ccc(Cl)cc1)c1ncc(CO)s1 [4(fS), N-(2-amino-1-(5-(hydroxymethyl)thiazol-2-yl)ethyl)-2-((4-chlorobenzyl)amino)acetamide dihydrochloride]	None of these derivatives showed any appreciable antiviral activity	–
O=C(NC1(c2nc(CO)cs2)CCNCC1)c1ccc(-c2ccc(C(F)(F)F)cc2)[nH]1 [compound 17, N-(4-(4-(hydroxymethyl)thiazol-2-yl)piperidin-4-yl)-5-(4-(trifluoromethyl)phenyl)-1H-pyrrole-2-carboxamide]	–	antiviral activity against the clinical isolate HIV-1WEAUd15.410.5017, in words [2]: best antiviral activity
